The source of these data is publication PMC8286840, “Identifying SARS-CoV-2 antiviral compounds by screening for small molecule inhibitors of Nsp3 papain-like protease” (Biochemical Journal, 2021).

Entries after “also recorded” stand apart in the source; their conditions may differ. Read-outs that look alike come from different tables or passages of the source. Where no end group is shown, it is not given here.

In experiment [1] the target is T1, SARS-CoV-2 PLpro (nsp3 1564–1878) (Severe acute respiratory syndrome coronavirus 2, UniProt P0DTD1). As to the kind of experiment: biochemical. To be noted: for Normalized activity High (3.75 µM) / Normalized activity Low (1.25µM): normalized to control without compound; for IC50: fluorescent-based assay; for Inhibition (%) 1.25 µM / Inhibition (%) 3.75 µM: 1.75 µM enzyme, 20 µM substrate. In kind it is biochemical.

Experiment [2] has as its target T2, SARS-CoV-2 PLpro (Severe acute respiratory syndrome coronavirus 2, UniProt P0DTD1). It is filed as biochemical. Particulars: 3.75 µM and 10 µM compound, 0.5 µM enzyme, 5 h RT.
In experiment [3] the target is T1, SARS-CoV-2 PLpro (nsp3 1564–1878). Kind of experiment: biochemical. To be noted: high concentration screen, read-out: % of control remaining. Set-up: FRET-quenched peptide (Pro3) cleavage by PLpro, 10 min pre-incubation, slope over 20 min, normalised to no-compound control.
For experiment [4] the target is unchanged. Kind of experiment: biochemical. To be noted: low concentration screen, read-out: % of control remaining. Set-up: FRET-quenched peptide (Pro3) cleavage by PLpro, 10 min pre-incubation, slope over 20 min, normalised to no-compound control.
The target of experiment [5] is T2, SARS-CoV-2 PLpro. It is filed as biochemical. Particulars: 10 µM inhibitor, 50 nM PLpro, 1 µM substrate, 1 h 25°C.
The target of experiment [6] is T2, SARS-CoV-2 PLpro. It is filed as biochemical. To be noted: 10 µM inhibitor, 50 nM PLpro, 1 µM substrate, 1 h 25°C. The source holds these as a separate data set.
The mark [7] stands for this setting: screen, 1.25 µM compound, number after the slash is the control without compound.
Where [8] appears, read: screen, 3.75 µM compound, number after the slash is the control without compound.

As a reminder, the IC50 is the concentration that inhibits the measured activity by half. A higher IC50 goes with a need for much substance. One may read the inhibition as the relative decrease from the control value, in per cent.

Take `CC[C@@H]1Cc2cc(O)ccc2C2=C1c1ccc(O)cc1C[C@H]2CC` (relative stereo) [(R,R)-cis-Diethyl tetrahydro-2,8-chrysenediol]: in experiment [1] (screen, Table S1), the Z score is listed as -14.155, the “Normalized activity High (3.75 µM)” value is reported as 0 and the “Normalized activity Low (1.25µM)” value is given as 0.8033.
The corresponding values for `CCCn1c(=O)c2[nH]c(-c3ccc(S(=O)(=O)O)cc3)nc2n(CCC)c1=O` [1,3-Dipropyl-8-p-sulfophenylxanthine] are -14.155, 0 and 0.885.
The matching figures for `Cn1c(=O)c2[nH]c(-c3ccc(S(=O)(=O)O)cc3)nc2n(C)c1=O` [8-(p-Sulfophenyl)theophylline]: -14.155, 0 and 0.9534.
Take `O=C1c2ccccc2-c2nc3nnnn3nc21` [PDK1/Akt/Flt Dual Pathway Inhibitor]: on SARS-CoV-2 PLpro [2], the “Inhibition of PLpro cleavage of the substrate (gel-based)” value (“Inhibition … (gel-based)” below) is listed as “show inhibition; also recorded: strongly inhibited”. In experiment [1], this molecule returned an IC50 of 265 nM. This molecule also returned an IC50 in experiment [1] (listed as PDK/Akt/Flt dual pathway inhibitor) of 260 nM. The molecule also returned a Z score in experiment [1] (screen hits, Table 1) of −14.53. For the same molecule, in experiment [1] (screen, 1.25 µM compound), the “Inhibition (%) 1.25 µM” value turned out to be 89%. The “slope value (of slope value/control) 1.25 µM” value in experiment [1] (setting [7]) came to 50. Moreover, in experiment [1] (screen, 3.75 µM compound), the “Inhibition (%) 3.75 µM” value is 100%. In addition, the “slope value (of slope value/control) 3.75 µM” value in experiment [1] (setting [8]) is recorded as 0. Moreover, in experiment [1] (screen, Table S1), the Z score is given as -14.531, the “Normalized activity High (3.75 µM)” value is reported as -0.02621 and the “Normalized activity Low (1.25µM)” value came out at 0.111. For the same molecule, the remaining activity at 3.75 µM in experiment [3] (Well no.=2319) is -2.62%. In addition, in experiment [4] (Well no.=2319), the remaining activity at 1.25 µM worked out at 11.1%.
Turning to `O=C(O)c1cccc(O)c1O` [Pyrocatechuic acid], the “Inhibition … (gel-based)” value at SARS-CoV-2 PLpro [2] was “did not inhibit”. Also, the Z score in experiment [1] (screen hits, Table 1) is −6.846. Besides, in experiment [1] (screen, 1.25 µM compound), the “Inhibition (%) 1.25 µM” value was 0%. For the same molecule, the “slope value (of slope value/control) 1.25 µM” value in experiment [1] (setting [7]) came to 453. Besides, the “Inhibition (%) 3.75 µM” value in experiment [1] (screen, 3.75 µM compound) worked out at 49%. The “slope value (of slope value/control) 3.75 µM” value in experiment [1] (setting [8]) is recorded as 226. In addition, the remaining activity at 3.75 µM in experiment [3] (Well no.=6595) was determined as 51%. The remaining activity at 1.25 µM in experiment [4] (Well no.=6595) was determined as 103%.
As for `C[C@H](CCC(=O)O)[C@H]1CC[C@H]2[C@@H]3[C@@H](O)C[C@@H]4C[C@H](O)CC[C@]4(C)[C@H]3CC[C@]12C` [Ursodiol], the “Inhibition … (gel-based)” value on SARS-CoV-2 PLpro [2] is listed as “did not inhibit”. Moreover, in experiment [1], the “slope value (of slope value/control) 1.25 µM” value was 26 (324/440) and the “slope value (of slope value/control) 3.75 µM” value is listed as 55 (187/420). Besides, the inhibition at 1.25 µM in experiment [1] (read-out: Inhibition (%) 1.25 µM) worked out at 26%. Besides, the inhibition at 3.75 µM in experiment [1] (read-out: Inhibition (%) 3.75 µM) turned out to be 55%. The same molecule returned a Z score in experiment [1] (screen hits, Table 1) of −7.78. Moreover, in experiment [3] (Well no.=8332), the remaining activity at 3.75 µM was 90.6%. Besides, in experiment [4] (Well no.=8332), the remaining activity at 1.25 µM was found to be 89.1%.
For the molecule `COc1cc(C(=O)c2ccc3ncccc3c2)cc(OC)c1OC` [quinolin-6-yl(3,4,5-trimethoxyphenyl)methanone], in experiment [3] (Well no.=6127), the remaining activity at 3.75 µM was found to be 97.9%. Moreover, the remaining activity at 1.25 µM in experiment [4] (Well no.=6127) is 99.8%.
Regarding `O[C@H]1[C@H](O)[C@@H](O)[C@H](O)[C@@H](O)[C@@H]1O` [scyllo -Inositol], the remaining activity at 3.75 µM in experiment [3] (Well no.=5379) came to 102%. Moreover, the remaining activity at 1.25 µM in experiment [4] (Well no.=5379) is 104%.
As to `CC(C)=CC[C@@H](O)C1=CC(=O)c2c(O)ccc(O)c2C1=O` [shikonin], the “Inhibition of pro-ISG15 cleavage (deISGylating activity)” value on SARS-CoV-2 PLpro [5] was “did not inhibit”. The “Inhibition of K48-linked Ub3 cleavage (DUB activity)” value on SARS-CoV-2 PLpro [6] is “did not inhibit and not”. For the same molecule, the remaining activity at 3.75 µM was found to be 82.5% in experiment [3] (Well no.=3172) and 92.6% in experiment [3] (Well no.=6398). Moreover, the remaining activity at 1.25 µM in experiment [4] (Well no.=3172) came out at 86.4%; in experiment [4] (Well no.=6398), 96.8%.
With `C[N+](C)(C)CCOP(=O)([O-])OC[C@H](O)CO` [sn-Glycero-3-phosphocholine], the remaining activity at 3.75 µM in experiment [3] (Well no.=7303) was 106%. The remaining activity at 1.25 µM in experiment [4] (Well no.=7303) amounted to 106%.
As for `COCCCOc1ccnc(C[S+]([O-])c2nc3ccccc3[nH]2)c1C` (centres unmarked) [sodium 2-((4-(3-methoxypropoxy)-3-methylpyridin-2-yl)methylsulfinyl)benzo[d]imidazol-1-ide], the remaining activity at 3.75 µM in experiment [3] (Well no.=6070) came out at 93.7%. In addition, in experiment [4] (Well no.=6070), the remaining activity at 1.25 µM stood at 95.8%.
Turning to `COc1ccnc(C[S+]([O-])c2nc3cc(OC(F)F)ccc3[nH]2)c1OC` (centres unmarked) [sodium 5-(difluoromethoxy)-2-((3,4-dimethoxypyridin-2-yl)methylsulfinyl)benzo[d]imidazol-1-ide hydrate], in experiment [3] (Well no.=5829), the remaining activity at 3.75 µM came out at 96.9%. In experiment [4] (Well no.=5829), the remaining activity at 1.25 µM is 95.3%.
For the molecule `CC(C)(C)C(=O)Oc1ccc(S(=O)(=O)Nc2ccccc2C(=O)NCC(=O)O)cc1` [sodium ({2-[({4-[(2,2-dimethylpropanoyl)oxy]phenyl}sulfonyl)amino]benzoyl}amino)acetate hydrate], the remaining activity at 3.75 µM in experiment [3] (Well no.=5452) amounted to 101%. The remaining activity at 1.25 µM in experiment [4] (Well no.=5452) worked out at 95.1%.
Take `CC(C)(C)c1cc(O)ccc1O` [tert-Butylhydroquinone]: in experiment [3] (Well no.=3861), the remaining activity at 3.75 µM was found to be 97.9%. For the same molecule, the remaining activity at 1.25 µM in experiment [4] (Well no.=3861) amounted to 98%.
Take `N[C@]1(C(=O)O)CC[C@H](C(=O)O)C1` [trans-ACPD]: in experiment [3] (Well no.=7040), the remaining activity at 3.75 µM was found to be 96.7%. Moreover, the remaining activity at 1.25 µM in experiment [4] (Well no.=7040) worked out at 98.2%.
Consider `O=C(O)/C=C(\CC(=O)O)C(=O)O` [trans-Aconitic acid], for which the remaining activity at 3.75 µM in experiment [3] (Well no.=6827) is 95.7%. Besides, the remaining activity at 1.25 µM in experiment [4] (Well no.=6827) worked out at 94.2%.
Take `O=C(O)/C=C/C=C/C(=O)O` [trans-trans-Muconic acid]: the remaining activity at 3.75 µM in experiment [3] (Well no.=6589) is 106%. Besides, the remaining activity at 1.25 µM in experiment [4] (Well no.=6589) came to 103%.
With `Nc1ncnc2c1C(=O)N(c1ccc(C3CCC(CC(=O)O)CC3)cc1)CCO2` (centres unmarked) [{4-[4-(4-amino-5-oxo-7,8-dihydropyrimido[5,4-f][1,4]oxazepin-6(5H)-yl)phenyl]cyclohexyl}acetic acid], the remaining activity at 3.75 µM in experiment [3] (Well no.=5830) was determined as 103%. Moreover, the remaining activity at 1.25 µM in experiment [4] (Well no.=5830) turned out to be 105%.
As to `CCCCC/C=C\C/C=C\C/C=C\CCCCC(=O)O` [γ-Linolenic acid (18:3 n-6)], the remaining activity at 3.75 µM in experiment [3] (Well no.=4307) came to 100%. The remaining activity at 1.25 µM in experiment [4] (Well no.=4307) is 95%.
Regarding Ac-LKKTETQ [TB500], in experiment [3] (Well no.=7646), the remaining activity at 3.75 µM came out at 90.2%. Besides, the remaining activity at 1.25 µM in experiment [4] (Well no.=7646) turned out to be 92.9%.
As for DRVYVHPF [Angiotensin II 5-valine], the remaining activity at 3.75 µM was determined as 97.5% in experiment [3] (Well no.=7899) and 89.7% in experiment [3] (Well no.=7986). Further, the remaining activity at 1.25 µM stood at 98.8% in experiment [4] (Well no.=7899) and 90.3% in experiment [4] (Well no.=7986).
For KIPYIL [Neuromedin N], the remaining activity at 3.75 µM in experiment [3] (Well no.=8061) was determined as 90.1%; in experiment [3] (Well no.=8502) it was 102%. Also, the remaining activity at 1.25 µM in experiment [4] (Well no.=8061) stood at 91.8%; in experiment [4] (Well no.=8502), 105%.
As for RPPGFSPFR [Bradykinin], the remaining activity at 3.75 µM in experiment [3] (Well no.=8439) was 95.2%. Moreover, the remaining activity at 1.25 µM in experiment [4] (Well no.=8439) came out at 98.7%.
